Structures can show the parent of a compound that is named as a salt.
Tests used:
PDE5 enzyme = PDE5 enzyme (Homo sapiens, UniProt O76074); assay: in vitro inhibition of cGMP PDE5; format: biochemical
Excerpt: The compounds of the present invention have been tested in vitro and found to be potent and selective inhibitors of cGMP PDE5.

SMILES: CCCc1nn(C)c2c(=O)[nH]c(-c3cc(S(=O)(=O)N4CCN(CC(=O)N[C@@H](CS)C(=O)O)CC4)ccc3OCC)nc12 [Example 2, sildenafil analog amide with cysteine]
- IC50 (PDE5 enzyme): 6.8 to 7.2 nM

SMILES: CCCc1nn(C)c2c(=O)[nH]c(-c3cc(S(=O)(=O)N4CCN(CC(=O)Oc5ccc(-c6cc(=S)ss6)cc5)CC4)ccc3OCC)nc12 [Example 1, sildenafil analog ester with 5-(p-hydroxyphenyl)-3H-1,2-dithiol-3-thione]
- melting point: 188 to 189 °C
- IC50 (PDE5 enzyme): 6.8 to 7.2 nM

SMILES: CCCc1nn(C)c2c(=O)[nH]c(-c3cc(S(=O)(=O)N4CCN(CC(=O)N[C@@H](CS)C(=O)O)CC4)ccc3OCC)nc12 (as salt: salt) (hydrate or solvate) [Example 2, sildenafil analog amide with cysteine]
- melting point: 166 to 168 °C

— patent US20090227597A1, “PYRAZOLOPYRIMIDINONES AS PHOSPHODIESTERASE INHIBITORS” (CTG PHARMA S.R.L., priority 2004, published 2009)
